Measurements as given in US8568805B2, “Cognitive function” (Mars, Inc., priority 2002, dated 2013).

Key:
[1] = tested on: WB-F344 rat liver epithelial cells; test: Gap junctional communication assay (Lucifer Yellow dye transfer); type: cell-based; conditions: for stimulation of GJIC, fold of control: 24 h of exposure
Protocol: WB-F344 rat liver epithelial cells (kindly provided by Dr. Trosko, East Lansing, Mich.) were grown in Dulbecco's modification of Eagle's Medium (DMEM) supplemented with 10% fetal calf serum (FCS), 2 mM L-glutamine and penicillin/streptomycin in 35 mm plastic dishes. Cells were incubated at 37° C. in a humidified atmosphere containing 5% CO2. The confluent cells were incubated with DMEM (without FCS) for 24 h to decrease the basal level of cell-cell communication. (−)-Epicatechin, genistein (Sigma) or TPA were dissolved in DMSO and added to the medium; controls received DMSO only. The final concentration of DMSO in the medium was 0.2%. The epicatechin dimer was prepared as described in Adamson et al. (“HPLC Method for the Quantification of Procyanidins in Cocoa and Chocolate Samples and Correlation to Total Antioxidant Capacity” J. Ag. Food Chem., Vol. 7:10, 4184-4188), the relevant portion of which is hereby incorporated herein by reference.
Cells were treated with (−)-epicatechin (4 to 40 μM) and genistein (40 μM) for 24 and 72 h and GJIC was determined. […] GJIC was measured by microinjection of the fluorescent dye Lucifer Yellow CH (10% in 0.33 M LiCl) into selected cells by means of a micromanipulator and a microinjector system (Eppendorf). One min after injection, the number of fluorescent cells around a single cell which was loaded with the dye were counted. Ten individual cells were injected per dish and means of the number of fluorescent neighboring cells were calculated. Images were taken with a Zeiss axiovert fluorescent microscope coupled to a CCD camera (ORCA II, Hamamatsu).

[2] = tested on: cultured human umbilical vein endothelial cells; conditions: cited from earlier work
connexin43 = test: Immunofluorescence analysis of the subcellular distribution of connexin43; type: cell-based, rat; conditions: 90 min
Protocol: For immunohistochemistry, WB-F344 cells were grown in complete medium with FCS on coverslips in 35 mm plastic dishes until they reached 90% confluence. The cells were incubated for 90 min with 1, 5, or 10 nM TPA, 40 μM (−)-epicatechin or 40 μM genistein or a combination of 40 μM (−)-epicatechin and (1, 5, 10 nM) TPA or 40 μM genistein and (1, 5, 10 nM) TPA; DMSO (0.2%) was used as a control. After treatment, cells were washed with PBS and fixed with methanol for 10 min at −20° C. After further washing with PBS, non-specific binding sites were blocked with 3% normal goat serum (NGS) in PBS containing 0.3% (v/v) Triton-X-100 for 45 min at room temperature. Cells were incubated with a polyclonal anti-Cx 43 antibody (Zymed); diluted 1:1500 in PBS with 1% (v/v) NGS overnight at 4° C. Cells were washed with PBS, and incubated with an Alexa 546-coupled goat anti-rabbit Ig G (H+L) secondary antibody (Molecular Probes; diluted to 1:800 in PBS) for 45 min at 37° C. After washing and embedding, images were taken with a Zeiss axiovert fluorescent microscope coupled to a CCD camera (ORCA II, Hamamatsu).

[3] = Rattus norvegicus, WB-F344, 40 μM, 72 h, read-out: GJIC % of Control

Oc1cc(O)c2c(c1)O[C@H](c1ccc(O)c(O)c1)[C@H](O)C2 [(−)-Epicatechin]
communication, fold above solvent control ([1]; 4 μM (lowest concentration)): 1.6 fold
Number of communicating cells ([1]; 4 μM, 72 h): 18.1 ± 2.2 cells
Number of communicating cells ([1]; 10 μM, 72 h): 20.1 ± 6.8 cells
GJIC (% control) ([1]; 40 μM plus TPA 0.1 nM, 90 min): 95 ± 14 % control
GJIC (% control) ([1]; 40 μM plus TPA 1 nM, 90 min): 95 ± 19 % control
GJIC (% control) ([1]; 40 μM plus TPA 5 nM, 90 min): 61 ± 15 % control
GJIC (% control) ([1]; 40 μM plus TPA 10 nM, 90 min): 50 ± 16 % control
stimulation of GJIC, fold of control ([1]; 40 μM): 1.5 fold
Number of communicating cells ([1]; 40 μM, 72 h): 24.2 ± 3.1 cells
increase of GJIC, fold above controls ([1]; 40 μM, 72 h incubation): 2.1 fold
activity at 4 µM ([1]; Rattus norvegicus, WB-F344, 4 μM, 72 h, read-out: GJIC % of Control): 156 ± 18%
activity at 10 µM ([1]; Rattus norvegicus, WB-F344, 10 μM, 72 h, read-out: GJIC % of Control): 173 ± 56%
activity at 40 µM [1, 3]: 209 ± 26%

O=c1c(-c2ccc(O)cc2)coc2cc(O)cc(O)c12 [Genistein, genistein]
levels that affect GJIC in cell culture [2]: above 10 μM
TPA effect on Cx43 distribution (connexin43; 40 μM plus TPA 10 nM): attenuated
counteraction of complete loss of GJIC by TPA ([1]; 40 μM coincubated with TPA 5 and 10 nM, 90 min): partially counteracted
GJIC (% control) ([1]; 40 μM plus TPA 1 nM, 90 min): 90 ± 23 % control
GJIC (% control) ([1]; 40 μM plus TPA 5 nM, 90 min): 83 ± 18 % control
GJIC (% control) ([1]; 40 μM plus TPA 10 nM, 90 min): 72 ± 17 % control
GJIC when applied together with TPA ([1]; 40 μM with 1 nM TPA, 90 min): restored GJIC to basal levels
stimulation of GJIC, fold of control ([1]; 40 μM): 2.1 fold
Number of communicating cells ([1]; 40 μM, 72 h): 35.4 ± 2.4 cells
increase of GJIC, fold above controls ([1]; 40 μM, 72 h incubation): 2.9 fold
activity at 40 µM [1, 3]: 293 ± 20%

CCCCCCCCCCCCCC(=O)O[C@@H]1[C@@H](C)[C@@]2(O)[C@@H](C=C(CO)C[C@]3(O)C(=O)C(C)=C[C@@H]23)[C@H]2C(C)(C)[C@]12OC(C)=O [TPA]
signal of membrane-associated Cx43 (connexin43; TPA 10 nM): decreased dramatically
effect on GJIC ([1]; 0.1 nM TPA, 90 min): No effect
GJIC diminished by ([1]; 1 nM TPA, 90 min): about 40%
GJIC (% control) ([1]; TPA 0.1 nM alone, 90 min): 94 ± 14 % control
GJIC (% control) ([1]; TPA 1 nM alone, 90 min): 55 ± 19 % control
GJIC (% control) ([1]; TPA 5 nM alone, 90 min): 0 % control
GJIC (% control) ([1]; TPA 10 nM alone, 90 min): 0 % control
intercellular communication ([1]; TPA alone 5 and 10 nM, 90 min): completely disrupted
effect on GJIC ([1]; TPA, 72 h incubation): no effect
